Data from patent US20240383898A1, “PYRIDO RING COMPOUND, PREPARATION METHOD THEREFOR, INTERMEDIATE, COMPOSITION, AND APPLICATION” (YIYOU BIOTECH (SHANGHAI) CO., LTD, priority 2021, published 2024).

Experiments:
JAK1 = molecular target: T1, JAK1 (Homo sapiens, UniProt P23458); experiment: In vitro activity test of JAK1 kinase (Caliper EZ Reader conversion assay); format: biochemical; conditions: enzyme activity, 10 concentrations from 1000 nM, 3-fold dilution
T1 construct: purchased Carna 08-114
T1 sequence (P23458 whole entry, species assumed): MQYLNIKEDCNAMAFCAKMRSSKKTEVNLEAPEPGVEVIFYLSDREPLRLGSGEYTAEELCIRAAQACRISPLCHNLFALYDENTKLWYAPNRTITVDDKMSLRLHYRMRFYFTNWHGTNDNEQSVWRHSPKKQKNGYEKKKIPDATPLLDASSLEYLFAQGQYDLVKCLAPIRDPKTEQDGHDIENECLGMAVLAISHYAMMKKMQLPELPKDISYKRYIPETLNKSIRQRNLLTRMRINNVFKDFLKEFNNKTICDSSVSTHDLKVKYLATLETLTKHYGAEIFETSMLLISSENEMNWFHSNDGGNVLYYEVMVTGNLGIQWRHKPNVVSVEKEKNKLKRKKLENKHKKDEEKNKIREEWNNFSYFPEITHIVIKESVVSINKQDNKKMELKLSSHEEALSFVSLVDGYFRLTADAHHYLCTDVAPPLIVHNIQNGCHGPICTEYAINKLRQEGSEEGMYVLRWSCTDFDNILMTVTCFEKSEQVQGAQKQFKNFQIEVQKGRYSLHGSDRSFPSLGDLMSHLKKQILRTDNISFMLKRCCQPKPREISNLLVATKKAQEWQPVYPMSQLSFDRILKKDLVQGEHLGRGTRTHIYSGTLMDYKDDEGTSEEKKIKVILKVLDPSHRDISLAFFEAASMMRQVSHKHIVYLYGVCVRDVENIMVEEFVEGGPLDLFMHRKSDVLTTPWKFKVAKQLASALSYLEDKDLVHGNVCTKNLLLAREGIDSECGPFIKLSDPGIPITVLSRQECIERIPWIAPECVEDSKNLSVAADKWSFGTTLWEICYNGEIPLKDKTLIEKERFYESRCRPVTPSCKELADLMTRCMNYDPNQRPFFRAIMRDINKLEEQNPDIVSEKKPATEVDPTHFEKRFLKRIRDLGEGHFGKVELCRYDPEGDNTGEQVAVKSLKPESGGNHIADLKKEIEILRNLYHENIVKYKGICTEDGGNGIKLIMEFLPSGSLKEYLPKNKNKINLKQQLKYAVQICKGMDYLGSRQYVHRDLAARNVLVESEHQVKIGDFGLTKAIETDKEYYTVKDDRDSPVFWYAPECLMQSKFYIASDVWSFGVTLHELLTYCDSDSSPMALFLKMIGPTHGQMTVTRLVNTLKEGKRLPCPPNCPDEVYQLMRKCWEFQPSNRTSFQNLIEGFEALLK
Method: (§1) In Vitro Activity Test of JAK1 and JAK2 Kinases
(§2) • Centrifuge (manufacturer: Eppendorf, model: 5430) • ELISA Instrument (Manufacturer: Perkin Elmer, Model: Caliper EZ Reader 1I) • Echo 550 (Manufacturer: Labcyte, Model: Echo 550)
(§3) (1) Prepare 1 Kinase buffer.
(§4) (2) Compound concentration gradient preparation: The test compound was tested at 1000 nM, 3-fold dilution, 10 concentrations, two-well assay, and configured to a 100-fold final concentration in a 384-well plate. 250 nl of the test compound was then transferred to the 384 reaction plate using Echo550. 250 nl of 100% DMSO was added to each of the negative and positive control wells.
(§5) (3) Prepare 2.5 times the final concentration of kinase solution with 1×Kinase buffer.
(§6) (4) Add 10 μL of 2.5 times the final concentration of kinase solution to the compound wells and 10 μL of 1×Kinase buffer to the negative control wells.
(§7) (5) Centrifuge at 1000 rpm for 30 seconds, mix well with shaking, and incubate at room temperature for 10 minutes.
(§8) (6) Prepare a 25/15-fold final concentration of mixture of ATP and Kinase substrate with 1×Kinase buffer.
(§9) (7) Add 15 μL of a mixture of 25/15 times the final concentration of ATP and substrate to start the reaction.
(§10) (8) Centrifuge the 384-well plate at 1000 rpm for 30 seconds, mix well with shaking, and incubate at room temperature for an appropriate amount of time.
(§11) (9) Stop the kinase reaction by adding 30 μL of termination solution, centrifuge at 1000 rpm for 30 seconds, and mix well with shaking.
(§12) (10) Read the conversion rate with Caliper EZ Reader.
(§13) where: Conversion %_sample is the conversion rate reading of the sample-, Conversion %_min: the average value of the negative control wells, representing the conversion reading of the wells without enzyme activity: Conversion %-max: the average value of the positive control wells, representing the conversion reading of the wells without compound inhibition.
(§14) The log value of concentration was used as the X-axis and the percentage inhibition as the Y-axis, and the function of the analytical software GraphPad Prism 5; log(inhibitor) vs. response -Variable slope, was used to lit dose-effect curves to obtain the IC50) values of each compound on enzyme activity.
(§15) The formula is Y=Bottom+(Top-Bottom)/(1+10^((LogIC50-X)*HillSlope))
(§16) The 1C50 data are specified in Table 1.

JAK2 = molecular target: T2, JAK2 (Homo sapiens, UniProt O60674); experiment: In vitro activity test of JAK2 kinase (Caliper EZ Reader conversion assay); format: biochemical; conditions: enzyme activity, 10 concentrations from 1000 nM, 3-fold dilution
T2 construct: purchased Carna 08-045
T2 sequence (O60674 whole entry, species assumed): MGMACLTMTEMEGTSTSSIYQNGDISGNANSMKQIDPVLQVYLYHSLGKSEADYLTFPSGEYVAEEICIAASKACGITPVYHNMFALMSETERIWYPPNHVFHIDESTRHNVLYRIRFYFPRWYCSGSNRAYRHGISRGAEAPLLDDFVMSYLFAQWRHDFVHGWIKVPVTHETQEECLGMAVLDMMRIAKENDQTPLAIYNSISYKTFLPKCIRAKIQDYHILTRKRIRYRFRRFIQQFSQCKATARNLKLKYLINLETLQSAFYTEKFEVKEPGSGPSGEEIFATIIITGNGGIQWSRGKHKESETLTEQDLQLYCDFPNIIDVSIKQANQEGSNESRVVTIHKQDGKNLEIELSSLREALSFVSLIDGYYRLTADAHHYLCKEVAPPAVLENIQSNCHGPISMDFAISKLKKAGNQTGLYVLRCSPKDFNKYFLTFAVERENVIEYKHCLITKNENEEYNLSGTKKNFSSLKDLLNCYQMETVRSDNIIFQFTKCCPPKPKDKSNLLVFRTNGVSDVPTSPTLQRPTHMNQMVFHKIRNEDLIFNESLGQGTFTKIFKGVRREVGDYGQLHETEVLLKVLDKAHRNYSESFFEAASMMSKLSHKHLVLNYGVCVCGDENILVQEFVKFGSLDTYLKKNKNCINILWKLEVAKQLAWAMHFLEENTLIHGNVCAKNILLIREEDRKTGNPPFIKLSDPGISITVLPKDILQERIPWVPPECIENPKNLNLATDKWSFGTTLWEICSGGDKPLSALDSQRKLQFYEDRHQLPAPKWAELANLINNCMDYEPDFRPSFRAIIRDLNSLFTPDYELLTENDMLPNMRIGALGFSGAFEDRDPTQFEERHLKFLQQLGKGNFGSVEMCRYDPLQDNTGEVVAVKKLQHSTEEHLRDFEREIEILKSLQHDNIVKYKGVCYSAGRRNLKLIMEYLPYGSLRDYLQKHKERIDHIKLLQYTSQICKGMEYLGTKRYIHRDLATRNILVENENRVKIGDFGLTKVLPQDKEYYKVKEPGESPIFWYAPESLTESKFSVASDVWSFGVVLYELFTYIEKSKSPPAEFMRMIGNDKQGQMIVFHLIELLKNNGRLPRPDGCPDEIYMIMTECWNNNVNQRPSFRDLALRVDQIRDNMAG
Method: as §1, §2, §3, §4, §5, §6, §7, §8, §9, §10, §11, §12, §13, §14, §15, §16

Question: What does the source list for C[C@@H](O)c1nc2cnc3[nH]ccc3c2n1C1CCN(C(=O)OC(C)(C)C)C1 (stereo partly drawn) [LXS01, tert-butyl 3-(2-((R)-1-hydroxyethyl)imidazo[4,5-d]pyrrolo[2,3-b]pyridin-1(6H)-yl)pyrrolidine-1-carboxylate]?
Answer: IC50 (JAK1): 100 to 1000 nM; IC50 (JAK2): 100 to 1000 nM

Question: For C[C@@H](O)c1nc2cnc3[nH]ccc3c2n1C1CCN(C(=O)c2ccc(C#N)cc2)C1 (stereo partly drawn) [LXS02, 4-(3-(2-((R)-1-hydroxyethyl)imidazo[4,5-d]pyrrolo[2,3-b]pyridin-1(6H)-yl)pyrrolidin-1-carbonyl)benzonitrile], which IC50 (JAK1) is on record?
Answer: 100 to 1000 nM

Question: And the IC50 (JAK2)?
Answer: 100 to 1000 nM

Question: How did the IC50 (JAK1) turn out when C[C@@H](O)c1nc2cnc3[nH]ccc3c2n1C1CCN(C(=O)c2ccc(F)cc2)C1 (stereo partly drawn) [LXS03, (4-Fluorophenyl)(3-(2-((R)-1-Hydroxyethyl)imidazo[4,5-d]pyrrolo[2,3-b]pyridin-1(6H)-yl)pyrrolidin-1-yl)methanone] was run?
Answer: 100 to 1000 nM

Question: And the IC50 (JAK2)?
Answer: 100 to 1000 nM

Question: With CCS(=O)(=O)N1CCC(n2c([C@@H](C)O)nc3cnc4[nH]ccc4c32)C1 (stereo partly drawn) [LXS04, (1R)-1-(1-(1-(ethylsulfonyl)pyrrolidin-3-yl)-1,6-dihydroimidazo[4,5-d]pyrrolo[2,3-b]pyridin-2-yl)ethan-1-ol] as the compound, how does the IC50 (JAK1) read?
Answer: 10 to 100 nM

Question: And the IC50 (JAK2)?
Answer: 100 to 1000 nM

Question: For CCCS(=O)(=O)N1CCC(n2c([C@@H](C)O)nc3cnc4[nH]ccc4c32)C1 (stereo partly drawn) [LXS05, (1R)-1-(1-(1-(propylsulfonyl)pyrrolidin-3-yl)-1,6-dihydroimidazo[4,5-d]pyrrolo[2,3-b]pyridin-2-yl)ethan-1-ol], which IC50 (JAK1) is on record?
Answer: 10 to 100 nM

Question: What about the IC50 (JAK2) of the same compound?
Answer: 100 to 1000 nM

Question: For CCCCS(=O)(=O)N1CCC(n2c([C@@H](C)O)nc3cnc4[nH]ccc4c32)C1 (stereo partly drawn) [LXS06, (1R)-1-(1-(1-(butylsulfonyl)pyrrolidin-3-yl)-1,6-dihydroimidazo[4,5-d]pyrrolo[2,3-b]pyridin-2-yl)ethan-1-ol], which IC50 (JAK1) is on record?
Answer: 10 to 100 nM

Question: And the IC50 (JAK2)?
Answer: 100 to 1000 nM

Question: What does the source list for C[C@@H](O)c1nc2cnc3[nH]ccc3c2n1C1CCN(S(=O)(=O)c2ccccc2F)C1 (stereo partly drawn) [LXS07, (1R)-1-(1-(1-((2-fluorophenyl)sulfonyl)pyrrolidin-3-yl)-1,6-dihydroimidazo[4,5-d]pyrrolo[2,3-b]pyridin-2-yl)ethan-1-ol]?
Answer: IC50 (JAK1): 100 to 1000 nM; IC50 (JAK2): 100 to 1000 nM

Question: Cc1ccc(S(=O)(=O)N2CCC(n3c([C@@H](C)O)nc4cnc5[nH]ccc5c43)C2)cc1 (stereo partly drawn) [LXS08, (1R)-1-(1-(1-tosylpyrrolidin-3-yl)-1,6-dihydroimidazo[4,5-d]pyrrolo[2,3-b]pyridin-2-yl)ethan-1-ol] was tested. Which IC50 (JAK1) did it give?
Answer: 100 to 1000 nM

Question: What about the IC50 (JAK2) of the same compound?
Answer: 100 to 1000 nM

Question: How did the IC50 (JAK1) turn out when C[C@@H](O)c1nc2cnc3[nH]ccc3c2n1C1CCN(S(=O)(=O)c2ccc(-c3ccccc3)cc2)C1 (stereo partly drawn) [LXS09, (1R)-1-(1-(1-([1,1′-biphenyl]-4-ylsulfonyl)pyrrolidin-3-yl)-1,6-dihydroimidazo[4,5-d]pyrrolo[2,3-b]pyridin-2-yl)ethan-1-ol] was run?
Answer: 100 to 1000 nM

Question: And the IC50 (JAK2)?
Answer: > 1000 nM

Question: Which IC50 (JAK1) does the source give for C[C@@H](O)c1nc2cnc3[nH]ccc3c2n1C1CCN(S(=O)(=O)c2ccc3ccccc3c2)C1 (stereo partly drawn) [LXS10, (1R)-1-(1-(1-(naphthalen-2-ylsulfonyl)pyrrolidin-3-yl)-1,6-dihydroimidazo[4,5-d]pyrrolo[2,3-b]pyridin-2-yl)ethan-1-ol] here?
Answer: 100 to 1000 nM

Question: What about the IC50 (JAK2) of the same compound?
Answer: > 1000 nM

Question: What does the source list for C[C@@H](O)c1nc2cnc3[nH]ccc3c2n1C1CCN(S(=O)(=O)c2ccc(OC(F)(F)F)cc2)C1 (stereo partly drawn) [LXS11, (1R)-1-(1-(1-((4-(trifluoromethoxy)phenyl)sulfonyl)pyrrolidin-3-yl)-1,6-dihydroimidazo[4,5-d]pyrrolo[2,3-b]pyridin-2-yl)ethan-1-ol]?
Answer: IC50 (JAK1): 10 to 100 nM; IC50 (JAK2): 100 to 1000 nM

Question: With C[C@@H](O)c1nc2cnc3[nH]ccc3c2n1C1CCN(S(=O)(=O)c2cccs2)C1 (stereo partly drawn) [LXS12, (1R)-1-(1-(1-(thiophen-2-ylsulfonyl)pyrrolidin-3-yl)-1,6-dihydroimidazo[4,5-d]pyrrolo[2,3-b]pyridin-2-yl)ethan-1-ol] as the compound, how does the IC50 (JAK1) read?
Answer: 10 to 100 nM

Question: And the IC50 (JAK2)?
Answer: 100 to 1000 nM

Question: How did the IC50 (JAK1) turn out when CCS(=O)(=O)N1CC(CC#N)(n2cc(-n3c(-c4ccc(CO)o4)nc4cnc5[nH]ccc5c43)cn2)C1 [LXS13, 2-(1-(ethylsulfonyl)-3-(4-(2-(5-(hydroxymethyl)furan-2-yl)imidazo[4,5-d]pyrrolo[2,3-b]pyridin-1(6H)-yl)-1H-pyrazol-1-yl)azetidin-3-yl)acetonitrile] was run?
Answer: 100 to 1000 nM

Question: What about the IC50 (JAK2) of the same compound?
Answer: 10 to 100 nM

Question: CCCCS(=O)(=O)N1CC(CC#N)(n2cc(-n3c(-c4ccc(CO)o4)nc4cnc5[nH]ccc5c43)cn2)C1 [LXS15, 2-(1-(butylsulfonyl)-3-(4-(2-(5-(hydroxymethyl)furan-2-yl)imidazo[4,5-d]pyrrolo[2,3-b]pyridin-1(6H)-yl)-1H-pyrazol-1-yl)azetidin-3-yl)acetonitrile] was tested. Which IC50 (JAK1) did it give?
Answer: 100 to 1000 nM

Question: What about the IC50 (JAK2) of the same compound?
Answer: 10 to 100 nM

Question: CCCS(=O)(=O)N1CCC(n2c(-c3ccc(CO)o3)nc3cnc4[nH]ccc4c32)C1 (stereo not shown) [LXS16] was tested. Which IC50 (JAK1) did it give?
Answer: 10 to 100 nM

Question: And the IC50 (JAK2)?
Answer: 10 to 100 nM

Question: With O=C(C1CC1)N1CCC(n2c(-c3ccc(CO)o3)nc3cnc4[nH]ccc4c32)C1 (stereo not shown) [LXS17, Cyclopropyl(3-(2-(5-(hydroxymethyl)furan-2-yl)imidazo[4,5-d]pyrrolo[2,3-b]pyridin-1(6H)-yl)pyrrolidin-1-yl) methanone] as the compound, how does the IC50 (JAK1) read?
Answer: 10 to 100 nM

Question: And the IC50 (JAK2)?
Answer: 10 to 100 nM

Question: Which results are given for CCCS(=O)(=O)N1CCC(n2c(-c3ncc[nH]3)nc3cnc4[nH]ccc4c32)C1 (stereo not shown) [LXS18, 2-(1H-imidazol-2-yl)-1-(1-(propylsulfonyl)pyrrolidin-3-yl)-1,6-dihydroimidazo[4,5-d]pyrrolo[2,3-b]pyridine]?
Answer: IC50 (JAK1): 10 to 100 nM; IC50 (JAK2): 10 to 100 nM

Question: O=S(=O)(N1CCC(n2c(-c3ncc[nH]3)nc3cnc4[nH]ccc4c32)C1)C(F)(F)F (stereo not shown) [LXS19, 2-(1H-imidazol-2-yl)-1-(1-((trifluoromethyl)sulfonyl)pyrrolidin-3-yl)-1,6-dihydroimidazo[4,5-d]pyrrolo[2,3-b]pyridine] was tested. Which IC50 (JAK1) did it give?
Answer: 10 to 100 nM

Question: And the IC50 (JAK2)?
Answer: 10 to 100 nM

Question: Which IC50 (JAK1) does the source give for CCCS(=O)(=O)N1CCC(n2c(-c3ccccc3O)nc3cnc4[nH]ccc4c32)C1 (stereo not shown) [LXS30, 2-(1-(1-(propylsulfonyl)pyrrolidin-3-yl)-1,6-dihydroimidazo[4,5-d]pyrrolo[2,3-b]pyridin-2-yl)phenol] here?
Answer: 100 to 1000 nM

Question: What about the IC50 (JAK2) of the same compound?
Answer: 100 to 1000 nM

Question: How did the IC50 (JAK1) turn out when CCCS(=O)(=O)N1CCC(n2c(-c3ccc(O)cc3O)nc3cnc4[nH]ccc4c32)C1 (stereo not shown) [LXS31, 4-(1-(1-(Propylsulfonyl)pyrrolidin-3-yl)-1,6-dihydroimidazo[4,5-d]pyrrolo[2,3-b]pyridin-2-yl)benzene-1,3-diol] was run?
Answer: 100 to 1000 nM

Question: What about the IC50 (JAK2) of the same compound?
Answer: 100 to 1000 nM

Question: CCCS(=O)(=O)N1CCC(n2c(-c3cccc(O)c3)nc3cnc4[nH]ccc4c32)C1 (stereo not shown) [LXS32, 3-(1-(1-(propylsulfonyl)pyrrolidin-3-yl)-1,6-dihydroimidazo[4,5-d]pyrrolo[2,3-b]pyridin-2-yl)phenol] was tested. Which IC50 (JAK1) did it give?
Answer: 10 to 100 nM

Question: And the IC50 (JAK2)?
Answer: < 10 nM

Question: C=CC(=O)N1CCC(n2c(-c3ccc(O)cc3O)nc3cnc4[nH]ccc4c32)C1 (stereo not shown) [LXS33, 1-(3-(2-(2,4-Dihydroxyphenyl)imidazo[4,5-d]pyrrolo[2,3-b]pyridin-1(6H)-yl)pyrrolidin-1-yl)prop-2-en-1-one] was tested. Which IC50 (JAK1) did it give?
Answer: 10 to 100 nM

Question: What about the IC50 (JAK2) of the same compound?
Answer: 10 to 100 nM

Question: O=C(NCC(F)(F)F)N1CCC(n2c(-c3cccc(O)c3)nc3cnc4[nH]ccc4c32)C1 (stereo not shown) [LXS34, 3-(2-(3-Hydroxyphenyl)imidazo[4,5-d]pyrrolo[2,3-b]pyridin-1(6H)-yl)-N-(2,2,2-trifluoroethyl)pyrrolidine-1-carboxamide] was tested. Which IC50 (JAK1) did it give?
Answer: 100 to 1000 nM

Question: And the IC50 (JAK2)?
Answer: 100 to 1000 nM
